Legend:
Assay in all cases: Test C postemergence
Assay type in all cases: in vivo
Details in all cases: scale 0 to 100, 0 no effect, 100 complete control
[1] = test system: velvetleaf (Abutilon theophrasti)
Method in brief: (§1)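 Visual 0 (no effect) to 100 (complete control) ratings versus controls, taken 13–15 d after treatment in the greenhouse; dash means no result. Compounds in a surfactant-containing non-phytotoxic solvent blend were applied preemergence to seeds in loam-sand soil or postemergence to 1- to 4-leaf plants (2–18 cm) in peat-based medium.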

[2] = test system: wheat (winter wheat, Triticum aestivum)
Method in brief: as §1

[3] = test system: pigweed (Amaranthus retroflexus)
Method in brief: as §1

[4] = test system: lambsquarters (Chenopodium album)
Method in brief: as §1

[5] = test system: soybean (Glycine max)
Method in brief: as §1

[6] = test system: Kochia (Kochia scoparia)
Method in brief: as §1

[7] = test system: waterhemp (common waterhemp, Amaranthus rudis)
Method in brief: as §1

[8] = test system: crabgrass, large (large crabgrass, Digitaria sanguinalis)
Method in brief: as §1

[9] = test system: Galium (catchweed bedstraw, Galium aparine)
Method in brief: as §1

[10] = test system: oat, wild (wild oat, Avena fatua)
Method in brief: as §1

[11] = test system: corn (Zea mays)
Method in brief: as §1

[12] = test system: blackgrass (Alopecurus myosuroides)
Method in brief: as §1

[13] = test system: barnyardgrass (Echinochloa crus-galli)
Method in brief: as §1

[14] = test system: johnsongrass (Sorghum halepense)
Method in brief: as §1

[15] = test system: ryegrass, Italian (Italian ryegrass, Lolium multiflorum)
Method in brief: as §1

[16] = test system: oilseed rape (Brassica napus)
Method in brief: as §1

[17] = test system: foxtail, giant (giant foxtail, Setaria faberii)
Method in brief: as §1

CN1C[C@H](c2ccc(F)c(F)c2)[C@@H](C(=O)Nc2ccccc2F)C1=O [Compound 596, (3S,4S)-4-(3,4-difluorophenyl)-N-(2-fluorophenyl)-1-methyl-2-oxo-3-pyrrolidinecarboxamide]
Plant response rating, Velvetleaf ([1]; 31 g ai/ha): 35 | Plant response rating, Velvetleaf ([1]; 62 g ai/ha): 35 | Plant response rating, Velvetleaf ([1]; 125 g ai/ha): 50 | Plant response rating, Velvetleaf ([1]; 250 g ai/ha): 55 | Plant response rating, Wheat ([2]; 31 g ai/ha): 0 | Plant response rating, Wheat ([2]; 62 g ai/ha): 0 | Plant response rating, Wheat ([2]; 125 g ai/ha): 0 | Plant response rating, Wheat ([2]; 250 g ai/ha): 0 | Plant response rating, Pigweed ([3]; 31 g ai/ha): 10 | Plant response rating, Pigweed ([3]; 62 g ai/ha): 10 | Plant response rating, Pigweed ([3]; 125 g ai/ha): 35 | Plant response rating, Pigweed ([3]; 250 g ai/ha): 30 | Plant response rating, Lambsquarters ([4]; 31 g ai/ha): 35 | Plant response rating, Lambsquarters ([4]; 62 g ai/ha): 35 | Plant response rating, Lambsquarters ([4]; 125 g ai/ha): 40 | Plant response rating, Lambsquarters ([4]; 250 g ai/ha): 55 | Plant response rating, Soybean ([5]; 31 g ai/ha): 0 | Plant response rating, Soybean ([5]; 62 g ai/ha): 0 | Plant response rating, Soybean ([5]; 125 g ai/ha): 10 | Plant response rating, Soybean ([5]; 250 g ai/ha): 0 | Plant response rating, Kochia ([6]; 31 g ai/ha): 30 | Plant response rating, Kochia ([6]; 62 g ai/ha): 30 | Plant response rating, Kochia ([6]; 125 g ai/ha): 35 | Plant response rating, Kochia ([6]; 250 g ai/ha): 60 | Plant response rating, Waterhemp ([7]; 31 g ai/ha): 0 | Plant response rating, Waterhemp ([7]; 62 g ai/ha): 0 | Plant response rating, Waterhemp ([7]; 125 g ai/ha): 20 | Plant response rating, Waterhemp ([7]; 250 g ai/ha): 30 | Plant response rating, Crabgrass, Large ([8]; 31 g ai/ha): 30 | Plant response rating, Crabgrass, Large ([8]; 62 g ai/ha): 65 | Plant response rating, Crabgrass, Large ([8]; 125 g ai/ha): 65 | Plant response rating, Crabgrass, Large ([8]; 250 g ai/ha): 75 | Plant response rating, Galium ([9]; 31 g ai/ha): 40 | Plant response rating, Galium ([9]; 62 g ai/ha): 45 | Plant response rating, Galium ([9]; 125 g ai/ha): 60 | Plant response rating, Galium ([9]; 250 g ai/ha): 60 | Plant response rating, Oat, Wild ([10]; 31 g ai/ha): 0 | Plant response rating, Oat, Wild ([10]; 62 g ai/ha): 0 | Plant response rating, Oat, Wild ([10]; 125 g ai/ha): 0 | Plant response rating, Oat, Wild ([10]; 250 g ai/ha): 5 | Plant response rating, Corn ([11]; 31 g ai/ha): 0 | Plant response rating, Corn ([11]; 62 g ai/ha): 0 | Plant response rating, Corn ([11]; 125 g ai/ha): 0 | Plant response rating, Corn ([11]; 250 g ai/ha): 10 | Plant response rating, Blackgrass ([12]; 31 g ai/ha): 0 | Plant response rating, Blackgrass ([12]; 62 g ai/ha): 0 | Plant response rating, Blackgrass ([12]; 125 g ai/ha): 0 | Plant response rating, Blackgrass ([12]; 250 g ai/ha): 10 | Plant response rating, Barnyardgrass ([13]; 31 g ai/ha): 0 | Plant response rating, Barnyardgrass ([13]; 62 g ai/ha): 30 | Plant response rating, Barnyardgrass ([13]; 125 g ai/ha): 45 | Plant response rating, Barnyardgrass ([13]; 250 g ai/ha): 65 | Plant response rating, Johnsongrass ([14]; 31 g ai/ha): 0 | Plant response rating, Johnsongrass ([14]; 62 g ai/ha): 0 | Plant response rating, Johnsongrass ([14]; 125 g ai/ha): 0 | Plant response rating, Johnsongrass ([14]; 250 g ai/ha): 10 | Plant response rating, Ryegrass, Italian ([15]; 31 g ai/ha): 0 | Plant response rating, Ryegrass, Italian ([15]; 62 g ai/ha): 0 | Plant response rating, Ryegrass, Italian ([15]; 125 g ai/ha): 0 | Plant response rating, Ryegrass, Italian ([15]; 250 g ai/ha): 0 | Plant response rating, Oilseed Rape ([16]; 31 g ai/ha): 0 | Plant response rating, Oilseed Rape ([16]; 62 g ai/ha): 0 | Plant response rating, Oilseed Rape ([16]; 125 g ai/ha): 30 | Plant response rating, Oilseed Rape ([16]; 250 g ai/ha): 30 | Plant response rating, Foxtail, Giant ([17]; 31 g ai/ha): 10 | Plant response rating, Foxtail, Giant ([17]; 62 g ai/ha): 20 | Plant response rating, Foxtail, Giant ([17]; 125 g ai/ha): 50 | Plant response rating, Foxtail, Giant ([17]; 250 g ai/ha): 80
